From patent US9375436B2, “Androgen treatment in females” (priority 2004, dated 2016)
“And” between values parts separate entries of the source, which are not always exact repeats. Identical values can stand only once.

Experiments:
[1] = tested on: women with diminished ovarian function; assay: Case control study of clinical pregnancy with DHEA supplementation (Example 7); type: in vivo, human
Description: A case control study of 190 women over 30 years old with diminished ovarian function were studied between 1999 and December 2005. The study group included 89 patients with a mean age of about 41.6 who used supplementation of about 75 mg daily of oral, micronized DHEA for up to four months prior to entry into IVF. […] The primary outcome was clinical pregnancy after the patient's initial visit.
Ovarian stimulation was identical for study and control groups and consisted of microdose agonist flare, followed by maximal dosage gonadotropin stimulation, using about 300-450 IU of FSH and about 150 IU of HMG. Study patients received DHEA continuously until a positive pregnancy test was obtained or until the patient dropped out of treatment.
In an additional study, a retrospective analysis of a 190 women with diminished ovarian function above 30 years old, who were treated between 1999 and December 2005 was completed to assess the impact of DHEA supplementation on the time interval to the establishment of pregnancy.
A prequalification for each patient's diagnosis of diminished ovarian function was either a sub-diagnosis of premature ovarian aging (POA) or a sub-diagnosis of diminished ovarian reserve (DOR). POA was, in turn, defined as baseline follicle stimulating hormone (b-FSH), on Day 2/3 of a cycle as <12 mIU/ml, but exceeding the 95% CI of the mean value for the patient's age group.
Specifically, this meant b-FSH≧7.4 mIU/ml at age 30-34 years and ≧8.6 mIU/ml at age≧35 years. DOR, in turn, was defined as b-FSH≧12 mIU/ml and/or a baseline estradiol level≧75 pg/ml. 49 patients were confirmed with POA and 52 patients were confirmed with DOR, creating a control group of 101 women. Because of potential impending loss of ovarian function in the control group women, the control group women were treated with IVF as soon as possible.
During the time studied, the study group consisted of 89 patients, with diminished ovarian function (POA 24, DOR 65). Each person in the study group was placed on DHEA supplementation. The DHEA supplementation included administering about 25 mg of (pharmaceutical grade) micronized DHEA, three times daily, for up to about four months (mean 3.8±0.3 months). […] This delay of IVF treatment allowed the possibility of spontaneously conceived pregnancies.
Ovarian stimulation was identical for study and control groups and comprised microdose agonist flare, followed by maximal dosage gonadotropin stimulation, using about 300-450 IU of FSH and about 150 IU of HMG. Study patients received DHEA continuously until a positive pregnancy test was obtained or until the patient dropped out of treatment. DHEA and DHEAS levels were monitored monthly, and patients were interviewed at each visit about adverse reactions to DHEA supplementation.
In order to assess the impact of DHEA supplementation on time interval to the establishment of pregnancy, this study was designed as a life-table analysis, measuring not only total pregnancy rates but also the time between initial presentation and end of last treatment intervention.
Each recorded clinical pregnancy, defined as positive fetal cardiac activity on ultrasound examination after 6 weeks, was recorded as a positive outcome. Patients who continued treatments beyond the study period or stopped treatments were considered right censored data at the end of the study period, or at treatment cessation, respectively.
A Cox regression analysis was used to evaluate time-to-event. The model that we used stratified for level of ovarian reserve (POA and DOR) and adjusted for age, day 3 FSH, fertility treatments (none, Intrauterine Insemination and controlled ovarian hyperstimulation (IUI/COH), or IVF) and race/ethnicity. A trend in pregnancy rates over months of DHEA exposure with an interaction term for time and DHEA months of exposure was tested. SPSS for Windows, Standard version 10.0.7 (SPSS Co. Chicago, Ill.) was utilized for data analysis. Continuous outcomes are presented as mean±1 standard error. […]

[2] = tested on: patients with evidence of decreased ovarian reserve; assay: IVF cycles before and after DHEA treatment (Example 2); type: in vivo, human
Description: Cumulative embryo score is determined by scoring day 3 embryos and multiplying the number of cells in the embryo by the embryo grade. Embryo grade is a judgment of the embryologist on embryo quality from 1 to 5. Most good embryos are scored 4, with 5 reserved for exceptional embryos. The grade is based on the uniformity of the cells, the color and consistency of the cytoplasm, and the amount of fragmentation. Normal embryos are less than 5% fragmented. A person with three eight cell embryos each with a grade of four would have a cumulative embryos score of 96, the product of 3×8×4.
In another study, thirty (30) patients with evidence of decreased ovarian reserve were given supplemental DHEA 25 mg three times a day, for a total of 75 mg per day, for an average of about 4 months before beginning ovulation induction for IVF. Twelve patients contributed data from cycles both pre-DHEA and post-DHEA, eleven patients contributed data from cycles only pre-DHEA, and seven patients contributed data from cycles only post-DHEA. Patients' response to ovulation induction before DHEA treatment was compared to patients' response to ovulation induction after DHEA treatment with regard to peak estradiol, oocyte production, and embryos transferred and embryo quality.

[3] = DHEA group, intrauterine insemination, no IVF
[4] = DHEA group, no other treatment than DHEA
[5] = Post DHEA, 19 cycles, 16.1 ± 2.4 weeks of DHEA 75 mg per day

## C[C@]12CC[C@H](O)CC1=CC[C@@H]1[C@@H]2CC[C@]2(C)C(=O)CC[C@@H]12 [DHEA, Dehydroepiandrosterone]
[1]; Cox regression, 95% CI 1.2 to 11.8
  proportional hazards ratio for clinical pregnancy relative to controls (HR): 3.8
[1]; DHEA group
  Implantation (FH/Embryos trans): (11.4%)
  Implantation (FH/Embryos trans) (n/N): 13/101
  Miscarriage (Per clinical Pregnancy) (n/N): 5 of 25 and 5/25
  Normal Day 3 embryos: 2.4±0.03 and 2.4 ± 0.3
  Oocytes: 3.9 ± 0.4
  Positive hCG (>25 mIU/ml): (30%)
  Positive hCG (>25 mIU/ml) (n/N): 26/88
  Transferred embryos: 2.1±0.2
  pregnancies established spontaneously (no IVF treatment) out of the 25: 12
[1]; DHEA group, all 89 patients
  Clinical Pregnancy (n/N): 25 of 89 and 25/89
[1]; [3]
  Clinical Pregnancy, IUI/COH: (66.7%)
  Clinical Pregnancy, IUI/COH (n/N): 6 of 9 and 6/9
[1]; [4]
  Clinical Pregnancy, No Treatment: (35.3%)
  Clinical Pregnancy, No Treatment (n/N): 6 of 16 and 6/16
[1]; DHEA group, patients reaching IVF
  Clinical Pregnancy, IVF (n/N): 13/64
[1]; DHEA group, about 25 mg three times daily, 3.8 ± 0.3 months
  Cancellation (IVF) (n/N): 9/63
[1]; DHEA versus control
  decrease of the miscarriage rate: about 44%
  increase of the percentage of clinical pregnancies: about 157%
[1]; approximately two months after initiation of treatment
  mean DHEA and DHEAS levels at cycle day 2: in the low normal ranges
[1]; correction for time dependent variables, 95% CI 1.6 to 14.2
  proportional hazards estimation of pregnancy (HR), extended Cox models: 4.8
[2]; 5 of 45 patients
  patients with continuing pregnancies: 11%
[2]; 7 of 45 patients
  patients using DHEA who have conceived: 16%
[2]; 12 patients
  mean increase in the number of fertilized oocytes (paired comparisons): 1.42±0.63
[2]; Post DHEA, 19 cycles
  Average Day 3 embryo cell count: 4.5 ± 0.5
  Average Day 3 embryo grade: 2.8 ± 0.3
  Fertilized eggs: 4.6 ± 0.8
  Number of Day 3 embryos: 3.2 ± 0.6
  Oocytes: 5.8 ± 1.0
  Peak Estradiol: 1192 ± 904
  Transferred embryos: 2.6 ± 0.4
[2]; [5]
  Cancellation: 5%
  Cancellation (cycles cancelled / cycles): 1 of 19 and 1/19
[2]; Post DHEA, cycles after an average of 4 months of DHEA treatment
  Positive hCG (per transfer cycle): 4/18
[2]; after versus prior to DHEA use
  increase in cumulative embryo score: about 64
[2]; post versus pre DHEA
  improved overall embryo score, model adjusted for oocyte number: 32.8
  increased fertilization, model adjusted for oocyte number: 1.93 fertilized oocytes
  increased numbers of day-three embryos, model adjusted for oocyte number: 1.36 embryos
